Measured values as given in patent US10738056B2 (Aduro BioTech, Inc., priority 2017, dated 2020).

Target: Human cGAS amino acids 155-522 (Homo sapiens (Human), UniProt Q8N884)
Assay: cGAS biochemical activity assay (ATP remaining, Kinase-Glo Max luminescence)
Conditions: human cGAS 155-522, ATP remaining (Kinase-Glo Max); read-out: cGAS IC50

Human cGAS amino acids 155-522, sequence (Q8N884 157-522): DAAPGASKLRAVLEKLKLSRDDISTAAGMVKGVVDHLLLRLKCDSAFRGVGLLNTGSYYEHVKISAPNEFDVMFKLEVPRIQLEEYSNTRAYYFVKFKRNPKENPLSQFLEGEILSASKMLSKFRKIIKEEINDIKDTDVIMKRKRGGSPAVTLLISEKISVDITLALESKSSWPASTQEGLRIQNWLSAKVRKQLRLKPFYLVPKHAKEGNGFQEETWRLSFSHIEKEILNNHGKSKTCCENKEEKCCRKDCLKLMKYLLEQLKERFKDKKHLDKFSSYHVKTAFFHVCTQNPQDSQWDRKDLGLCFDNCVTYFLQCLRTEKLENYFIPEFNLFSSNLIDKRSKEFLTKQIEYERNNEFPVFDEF

| SMILES | IC50 |
| --- | --- |
| Cc1[nH]c2c(-c3ccccc3)c(C(F)(F)F)nn2c(=O)c1C(=O)Nc1cccc(OC(F)(F)F)c1 [Compound A1050, 5-methyl-7-oxo-3-phenyl-N-(3-(trifluoromethoxy)phenyl)-2-(trifluoromethyl)-4,7-dihydropyrazolo[1,5-a]pyrimidine-6-carboxamide] | 20 to 250 µM |
| Cc1[nH]c2c(-c3ccccc3)c(C(F)(F)F)nn2c(=O)c1-c1nnc(C2CCN(S(C)(=O)=O)CC2)o1 [Compound D1053, 5-methyl-6-(5-(1-(methylsulfonyl)piperidin-4-yl)-1,3,4-oxadiazol-2-yl)-3-phenyl-2-(trifluoromethyl)pyrazolo[1,5-a]pyrimidin-7(4H)-one] | 20 to 250 µM |
| COc1ccnc(-c2nnc(-c3c(C)[nH]c4c(-c5ccccc5)c(C(F)(F)F)nn4c3=O)o2)n1 [Compound D1076, 6-(5-(4-methoxypyrimidin-2-yl)-1,3,4-oxadiazol-2-yl)-5-methyl-3-phenyl-2-(trifluoromethyl)pyrazolo[1,5-a]pyrimidin-7(4H)-one] | 20 to 250 µM |
| Cc1[nH]c2c(-c3ccccc3)c(C(F)(F)F)nn2c(=O)c1C(=O)Nc1cccc(NS(C)(=O)=O)c1 [Compound A1045, 5-methyl-N-(3-(methylsulfonamido)phenyl)-7-oxo-3-phenyl-2-(trifluoromethyl)-4,7-dihydropyrazolo[1,5-a]pyrimidine-6-carboxamide] | < 20 µM |
| Cc1[nH]c2c(-c3ccccc3)c(C(F)(F)F)nn2c(=O)c1CCNC(=O)c1ccccc1 [Compound B1014, N-(2-(5-methyl-7-oxo-3-phenyl-2-(trifluoromethyl)-4,7-dihydropyrazolo[1,5-a]pyrimidin-6-yl)ethyl)benzamide] | 20 to 250 µM |
| Cc1[nH]c2c(-c3ccccc3)c(C(F)(F)F)nn2c(=O)c1-c1nnc(C2COCCN2C(=O)OCc2ccccc2)o1 (stereo not shown) [Compound D1039, benzyl 3-(5-(5-methyl-7-oxo-3-phenyl-2-(trifluoromethyl)-4,7-dihydropyrazolo[1,5-a]pyrimidin-6-yl)-1,3,4-oxadiazol-2-yl)morpholine-4-carboxylate] | 20 to 250 µM |
| COc1cccc2oc(-c3c(COC4CCN(C)C4=O)[nH]c4c(-c5ccccc5)c(C(F)(F)F)nn4c3=O)nc12 (stereo not shown) [Compound C1225, 6-(4-methoxybenzo[d]oxazol-2-yl)-5-(((1-methyl-2-oxopyrrolidin-3-yl)oxy)methyl)-3-phenyl-2-(trifluoromethyl)pyrazolo[1,5-a]pyrimidin-7(4H)-one] | < 20 µM |
| Cc1[nH]c2c(-c3ccccc3)c(C(F)(F)F)nn2c(=O)c1C(=O)N1CCCC1 [Compound A1009, 5-methyl-3-phenyl-6-(pyrrolidine-1-carbonyl)-2-(trifluoromethyl)pyrazolo[1,5-a]pyrimidin-7(4H)-one] | > 250 µM |
| COc1ccc(-c2nnc(-c3c(C)[nH]c4c(-c5ccccc5)c(C(F)(F)F)nn4c3=O)o2)cc1 [Compound D1002, 6-(5-(4-methoxyphenyl)-1,3,4-oxadiazol-2-yl)-5-methyl-3-phenyl-2-(trifluoromethyl)pyrazolo[1,5-a]pyrimidin-7(4H)-one] | > 250 µM |
| COc1cccc(N(C)C(=O)c2c(C)[nH]c3c(-c4ccccc4)c(C(F)(F)F)nn3c2=O)c1 [Compound A1114, N-(3-methoxyphenyl)-N,5-dimethyl-7-oxo-3-phenyl-2-(trifluoromethyl)-4,7-dihydropyrazolo[1,5-a]pyrimidine-6-carboxamide] | > 250 µM |
| Cc1[nH]c2c(-c3ccccc3)c(C(F)(F)F)nn2c(=O)c1C(=O)Nc1ccnn1C [Compound A1078, 5-methyl-N-(1-methyl-1H-pyrazol-5-yl)-7-oxo-3-phenyl-2-(trifluoromethyl)-4,7-dihydropyrazolo[1,5-a]pyrimidine-6-carboxamide] | 20 to 250 µM |
| COc1cccc2oc(-c3c(C)[nH]c4c(-c5cccnc5)c(C(F)(F)F)nn4c3=O)nc12 [Compound C1129, 6-(4-methoxybenzo[d]oxazol-2-yl)-5-methyl-3-(pyridin-3-yl)-2-(trifluoromethyl)pyrazolo[1,5-a]pyrimidin-7(4H)-one] | 20 to 250 µM |
| Cc1[nH]c2c(-c3ccccc3)c(C(F)(F)F)nn2c(=O)c1-c1ccc2nccn2c1 [Compound C1006, 6-(imidazo[1,2-a]pyridin-6-yl)-5-methyl-3-phenyl-2-(trifluoromethyl)pyrazolo[1,5-a]pyrimidin-7(4H)-one] | > 250 µM |
| COc1cccc(NCCc2c(C)[nH]c3c(-c4ccccc4)c(C(F)(F)F)nn3c2=O)c1 [Compound B1015, 6-(2-((3-methoxyphenyl)amino)ethyl)-5-methyl-3-phenyl-2-(trifluoromethyl)pyrazolo[1,5-a]pyrimidin-7(4H)-one] | < 20 µM |
| CNC(=O)COCc1[nH]c2c(-c3ccccc3)c(C(F)(F)F)nn2c(=O)c1-c1nc2c(OC)cccc2o1 [Compound C1199, 2-((6-(4-methoxybenzo[d]oxazol-2-yl)-7-oxo-3-phenyl-2-(trifluoromethyl)-4,7-dihydropyrazolo[1,5-a]pyrimidin-5-yl)methoxy)-N-methylacetamide] | 20 to 250 µM |
| Cc1[nH]c2c(-c3ccccc3)c(C(F)(F)F)nn2c(=O)c1-c1nnc(C2CCCCC2N)o1 (stereo not shown) [Compound D1080, 6-(5-(2-aminocyclohexyl)-1,3,4-oxadiazol-2-yl)-5-methyl-3-phenyl-2-(trifluoromethyl)pyrazolo[1,5-a]pyrimidin-7(4H)-one] | > 250 µM |

| SMILES | IC50 |
| --- | --- |
| Cc1[nH]c2c(-c3ccccc3)c(C(F)(F)F)nn2c(=O)c1C1OC(=O)c2ccccc21 (stereo not shown) [Compound C1168, 5-methyl-6-(3-oxo-1,3-dihydroisobenzofuran-1-yl)-3-phenyl-2-(trifluoromethyl)pyrazolo[1,5-a]pyrimidin-7(4H)-one] | 20 to 250 µM |
| Cc1[nH]c2c(-c3ccccc3)c(C(F)(F)F)nn2c(=O)c1-c1nnc(C2CCCN(C(=O)OC(C)(C)C)C2)o1 (stereo not shown) [Compound D1031, tert-butyl 3-(5-(5-methyl-7-oxo-3-phenyl-2-(trifluoromethyl)-4,7-dihydropyrazolo[1,5-a]pyrimidin-6-yl)-1,3,4-oxadiazol-2-yl)piperidine-1-carboxylate] | 20 to 250 µM |
| COc1nccnc1NC(=O)c1c(C)[nH]c2c(-c3ccccc3)c(C(F)(F)F)nn2c1=O [Compound A1097, N-(3-methoxypyrazin-2-yl)-5-methyl-7-oxo-3-phenyl-2-(trifluoromethyl)-4,7-dihydropyrazolo[1,5-a]pyrimidine-6-carboxamide] | 20 to 250 µM |
| CC(=O)NCCc1c(C)[nH]c2c(-c3ccccc3)c(C(F)(F)F)nn2c1=O [Compound B1013, N-(2-(5-methyl-7-oxo-3-phenyl-2-(trifluoromethyl)-4,7-dihydropyrazolo[1,5-a]pyrimidin-6-yl)ethyl)acetamide] | 20 to 250 µM |
| Cc1[nH]c2c(-c3ccccc3)c(C(F)(F)F)nn2c(=O)c1-c1nnc(-c2cccc(N)c2)o1 [Compound D1079, 6-(5-(3-aminophenyl)-1,3,4-oxadiazol-2-yl)-5-methyl-3-phenyl-2-(trifluoromethyl)pyrazolo[1,5-a]pyrimidin-7(4H)-one] | > 250 µM |
| Cc1[nH]c2c(-c3ccccc3)c(C(F)(F)F)nn2c(=O)c1C(=O)Nc1ccncc1 [Compound A1047, 5-methyl-7-oxo-3-phenyl-N-(pyridin-4-yl)-2-(trifluoromethyl)-4,7-dihydropyrazolo[1,5-a]pyrimidine-6-carboxamide] | 20 to 250 µM |
| COc1cncc(NC(=O)c2c(C)[nH]c3c(-c4ccccc4)c(C(F)(F)F)nn3c2=O)n1 [Compound A1098, N-(6-methoxypyrazin-2-yl)-5-methyl-7-oxo-3-phenyl-2-(trifluoromethyl)-4,7-dihydropyrazolo[1,5-a]pyrimidine-6-carboxamide] | 20 to 250 µM |
| Cc1[nH]c2c(-c3ccccc3)c(C(F)(F)F)nn2c(=O)c1C(=O)N[C@@H]1CCCC[C@H]1N [Compound A1014, N-((1R,2R)-2-aminocyclohexyl)-5-methyl-7-oxo-3-phenyl-2-(trifluoromethyl)-4,7-dihydropyrazolo[1,5-a]pyrimidine-6-carboxamide] | 20 to 250 µM |
| Cc1[nH]c2c(C3CC3)c(C(F)(F)F)nn2c(=O)c1-c1ccccc1 [Compound C1265, 3-cyclopropyl-5-methyl-6-phenyl-2-(trifluoromethyl)pyrazolo[1,5-a]pyrimidin-7(4H)-one] | > 250 µM |
| Cc1[nH]c2c(-c3ccccc3)c(C(F)(F)F)nn2c(=O)c1C(=O)Nc1ccccc1N1CCCCC1 [Compound A1055, 5-methyl-7-oxo-3-phenyl-N-(2-(piperidin-1-yl)phenyl)-2-(trifluoromethyl)-4,7-dihydropyrazolo[1,5-a]pyrimidine-6-carboxamide] | 20 to 250 µM |
| COc1cccc2oc(-c3c(C)[nH]c4c(-c5ccccc5)c(C(=O)O)nn4c3=O)nc12 [Compound C1043, 6-(4-methoxybenzo[d]oxazol-2-yl)-5-methyl-7-oxo-3-phenyl-4,7-dihydropyrazolo[1,5-a]pyrimidine-2-carboxylic acid] | > 250 µM |
| COCCn1c(-c2c(C)[nH]c3c(-c4ccccc4)c(C(F)(F)F)nn3c2=O)nc2c(OC)cccc21 [Compound C1200, 6-(4-methoxy-1-(2-methoxyethyl)-1H-benzo[d]imidazol-2-yl)-5-methyl-3-phenyl-2-(trifluoromethyl)pyrazolo[1,5-a]pyrimidin-7(4H)-one] | 20 to 250 µM |
| COc1cccc2oc(-c3c(C)[nH]c4c(-c5cccc(C)c5)c(C(F)(F)F)nn4c3=O)nc12 [Compound C1172, 6-(4-methoxybenzo[d]oxazol-2-yl)-5-methyl-3-(m-tolyl)-2-(trifluoromethyl)pyrazolo[1,5-a]pyrimidin-7(4H)-one] | < 20 µM |
| COc1cccc2oc(-c3c(C4CCC(C(=O)O)CC4)[nH]c4c(-c5ccccc5)c(C(F)(F)F)nn4c3=O)nc12 (single isomer, unassigned) [Compound C1238, 4-(6-(4-methoxybenzo[d]oxazol-2-yl)-7-oxo-3-phenyl-2-(trifluoromethyl)-4,7-dihydropyrazolo[1,5-a]pyrimidin-5-yl)cyclohexane-1-carboxylic acid] | 20 to 250 µM |
| Cc1[nH]c2c(-c3ccccc3)c(C(F)(F)F)nn2c(=O)c1-c1cnc2ccccc2c1 [Compound C1007, 5-methyl-3-phenyl-6-(quinolin-3-yl)-2-(trifluoromethyl)pyrazolo[1,5-a]pyrimidin-7(4H)-one] | 20 to 250 µM |
